# From PMC8306139, “A Novel Dialkylamino-Functionalized Chalcone, DML6, Inhibits Cervical Cancer Cell Proliferation, In Vitro, via Induction of Oxidative Stress, Intrinsic Apoptosis and Mitotic Catastrophe” (Molecules, 2021)
# Read-outs that look alike come from different tables or passages of the source.
# Columns and labels:
# [1] = tested on: LOVO; experiment: MTT assay, LOVO; assay type: cell-based; settings: 72 h, read-out: IC50 ± SD Colon LOVO
# Protocol: (§1) The concentration of the tested compounds that produced a 50% inhibition of cell growth (IC50) was determined.
# (§2) A panel of cancer cell lines, including cervical (OV2008 and HeLa), breast (MDA-MB-231), lung (A549) and colon (LOVO), prostate (DU145), human embryonic kidney cells (HEK293), human colon fibroblast cells (CRL1459), and Chinese hamster ovary cells (CHO), were grown as adherent monolayers in flasks containing Dulbecco’s modified Eagle medium (DMEM), supplemented with 10% fetal bovine serum (FBS) and 1% penicillin and streptomycin, in a humidified incubator with 5% CO2 at 37 °C.
# (§3) The cells were seeded evenly (180 μL/well) in 96-well plates, at a density of 3000–5000 cells/well and incubated with serial dilutions of the compounds ranging from 0.1 to 100 μM. The MTT dye (4 mg/ml) was added after 72 h of incubation and incubated with the cells for an additional 4 h at 37 °C, allowing the viable cells to biotransform the yellow-colored MTT into dark-blue formazan crystals. Following incubation, the medium was aspirated, and the formazan crystals were dissolved by adding 100 μL of DMSO to each well. Cytation™ 5 and Cytation™ 7 multi-mode detector (Bio Tek Instruments, Winooski, VT, USA) was used to determine the absorbance readings at a wavelength of 570 nm. The IC50 values were determined based on 3 separate experiments, with each experiment carried out in triplicate.
# [2] = tested on: OV2008; experiment: MTT assay, OV2008; assay type: cell-based; settings: 72 h, read-out: IC50 ± SD Cervical OV2008
# Protocol: as §1, §2
# (§4) The cells were seeded evenly (180 μL/well) in 96-well plates, at a density of 3000–5000 cells/well and incubated with serial dilutions of the compounds ranging from 0.1 to 100 μM. The MTT dye (4 mg/ml) was added after 72 h of incubation and incubated with the cells for an additional 4 h at 37 °C, allowing the viable cells to biotransform the yellow-colored MTT into dark-blue formazan crystals. Following incubation, the medium was aspirated, and the formazan crystals were dissolved by adding 100 μL of DMSO to each well. Cytation™ 5 and Cytation™ 7 multi-mode detector (Bio Tek Instruments, Winooski, VT, USA) was used to determine the absorbance readings at a wavelength of 570 nm. The IC50 values were determined based on 3 separate experiments, with each experiment carried out in triplicate. The selectivity of the compounds was determined by comparing their IC50 values in cervical cancer compared to the normal epithelial cell lines, HEK293, CHO, and CRL1459.
# [3] = tested on: A549; experiment: MTT assay, A549; assay type: cell-based; settings: read-out: IC50 ± SD Lung A549
# Protocol: as §1, §2, §3
# [4] = tested on: HEK293; experiment: MTT assay, HEK293; assay type: cell-based, human; settings: read-out: IC50 ± SD Kidney HEK293
# Protocol: as §1, §2, §3
# [5] = tested on: HeLa; experiment: MTT assay, HeLa; assay type: cell-based; settings: 72 h, read-out: IC50 ± SD Cervical HeLa
# Protocol: Table S1. The antiproliferative efficacy of the DML1-DML12 compounds on the proliferation of cervical cancer cell line.
# Figure S1. The efficacy of DML6 in HeLa cancer cells. The cell-viability curve produced by HeLa cells treated with
# vehicle (0 μM), 5 or 10 μM of DML6 after 72 h of incubation. Cell survival was determined using the MTT assay. The
# IC50 values are represented as the means ± SD of three independent experiments performed in triplicate. […]
# [6] = tested on: DU145; experiment: MTT assay, DU145; assay type: cell-based; settings: Homo sapiens, DU-145, 72 h, read-out: IC50 ± SD Prostate DU145
# Protocol: as §1, §2, §3
# [7] = tested on: MDA-MB-231; experiment: MTT assay, MDA-MB-231; assay type: cell-based; settings: read-out: IC50 ± SD Breast MDA-MB-231
# Protocol: as §1, §2, §3
# [8] = tested on: cancer cell lines; experiment: MTT assay, panel of cancer cell lines; assay type: cell-based
# Protocol: as §1, §2, §4
smiles,measurement,setting,value
"CN(C)c1ccc(/C=C/C(=O)c2ccccn2)cc1 [DML1, (E)-3-[4-(dimethylamino)phenyl]-1-(pyridin-2-yl)prop-2-en-1-one]",IC50,"[1]; Homo sapiens, LoVo",> 100 µM
same,IC50,[2],> 100 µM
same,IC50,"[3]; Homo sapiens, A549, 72 h",> 100 µM
same,IC50,"[4]; Homo sapiens, HEK293, 72 h",> 100 µM
same,IC50,[5],70.7 ± 2.19 µM
same,IC50,"[5]; Homo sapiens, HeLa",> 70 µM
same,melting point,,126 °C
same,IC50,[6],> 100 µM
same,IC50,"[7]; Homo sapiens, MDA-MB-231, 72 h",> 100 µM
"CCN(CC)c1ccc(/C=C/C(=O)c2ccccn2)cc1 [DML2, (E)-3-[4-(diethylamino)phenyl]-1-(pyridin-2-yl)prop-2-en-1-one]",IC50,"[1]; Homo sapiens, LoVo",> 100 µM
same,IC50,[2],> 100 µM
same,IC50,"[3]; Homo sapiens, A549, 72 h",> 100 µM
same,IC50,"[4]; Homo sapiens, HEK293, 72 h",> 100 µM
same,IC50,"[5]; Homo sapiens, HeLa",> 100 µM
same,melting point,,142 °C
same,IC50,[6],> 100 µM
same,IC50,"[7]; Homo sapiens, MDA-MB-231, 72 h",> 100 µM
"COc1ccc(C(=O)/C=C/c2ccc(N(C)C)cc2)cc1 [DML3, (E)-3-[4-(dimethylamino)phenyl]-1-(4-methoxyphenyl)prop-2-en-1-one]",IC50,"[1]; Homo sapiens, LoVo",> 100 µM
same,IC50,[2],> 100 µM
same,IC50,"[3]; Homo sapiens, A549, 72 h",> 100 µM
same,IC50,"[4]; Homo sapiens, HEK293, 72 h",> 100 µM
same,IC50,"[5]; Homo sapiens, HeLa",> 100 µM
same,IC50,[6],> 100 µM
same,IC50,"[7]; Homo sapiens, MDA-MB-231, 72 h",> 100 µM
"COc1ccc(C(=O)/C=C/c2ccc(N(C)C)cc2)cc1OC [DML4, (E)-1-[3,4-dimethoxyphenyl]-3-(4-(dimethylamino)phenyl)prop-2-en-1-one]",IC50,[1],45 ± 22.6 µM
same,IC50,"[1]; Homo sapiens, LoVo",66.3 ± 4.6 µM
same,IC50,[2],13.8 ± 7 µM
same,IC50,[3]; 72 h,66.3 ± 4.6 µM
same,IC50,"[3]; Homo sapiens, A549, 72 h",45 ± 22.6 µM
same,IC50,[4]; 72 h,68.5 ± 2.1 µM
same,IC50,"[4]; Homo sapiens, HEK293, 72 h",> 65 µM
same,"anti-proliferative efficacy in a wide range of cancer cell lines, compared to normal cells",[8],moderate to good anti-proliferative efficacy
same,IC50,"[5]; Homo sapiens, HeLa",39.5 ± 11.4 µM
same,melting point,,86 °C
same,IC50,[6],22.5 ± 4.9 µM
same,IC50,[7]; 72 h,26.2 ± 23.9 µM
same,IC50,"[7]; Homo sapiens, MDA-MB-231, 72 h",26.7 ± 23.9 µM
"CN(C)c1ccc(C2=NN(c3ccccc3)C(c3ccccn3)C2)cc1 (stereo not shown) [DML7, N,N-dimethyl-4-[1-phenyl-5-(pyridin-2-yl)-4,5-dihydro-1H-pyrazol-3-yl]aniline]",IC50,"[1]; Homo sapiens, LoVo",> 100 µM
same,IC50,[2],> 100 µM
same,IC50,"[3]; Homo sapiens, A549, 72 h",> 100 µM
same,IC50,"[4]; Homo sapiens, HEK293, 72 h",> 100 µM
same,IC50,"[5]; Homo sapiens, HeLa",> 100 µM
same,melting point,,179 °C
same,IC50,[6],> 100 µM
same,IC50,"[7]; Homo sapiens, MDA-MB-231, 72 h",> 100 µM
"CCN(CC)c1ccc(C2=NN(c3ccccc3)C(c3ccccn3)C2)cc1 (stereo not shown) [DML8, N,N-diethyl-4-[1-phenyl-5-(pyridin-2-yl)-4,5-dihydro-1H-pyrazol-3-yl]aniline]",IC50,"[1]; Homo sapiens, LoVo",> 100 µM
same,IC50,[2],> 100 µM
same,IC50,"[3]; Homo sapiens, A549, 72 h",> 100 µM
same,IC50,"[4]; Homo sapiens, HEK293, 72 h",> 100 µM
same,IC50,"[5]; Homo sapiens, HeLa",> 100 µM
same,melting point,,188 °C
same,IC50,[6],> 100 µM
same,IC50,"[7]; Homo sapiens, MDA-MB-231, 72 h",> 100 µM
"COc1ccc(C2CC(c3ccc(N(C)C)cc3)=NN2c2ccccc2)cc1 (stereo not shown) [DML9, 4-(5-[4-methoxyphenyl]-1-phenyl-4,5-dihydro-1H-pyrazol-3-yl)-N,N-dimethylaniline]",IC50,"[1]; Homo sapiens, LoVo",> 100 µM
same,IC50,[2],> 100 µM
same,IC50,"[3]; Homo sapiens, A549, 72 h",> 100 µM
same,IC50,"[4]; Homo sapiens, HEK293, 72 h",> 100 µM
same,IC50,"[5]; Homo sapiens, HeLa",> 100 µM
same,melting point,,147 °C
same,IC50,[6],> 100 µM
same,IC50,"[7]; Homo sapiens, MDA-MB-231, 72 h",> 100 µM
"COc1ccc(C2CC(c3ccc(N(C)C)cc3)=NN2c2ccccc2)cc1OC (stereo not shown) [DML10, 4-(5-(3,4-dimethoxyphenyl)-1-phenyl-4,5-dihydro-1H-pyrazol-3-yl)-N,N-dimethylaniline]",IC50,"[1]; Homo sapiens, LoVo",> 100 µM
same,IC50,[2],> 100 µM
same,IC50,"[3]; Homo sapiens, A549, 72 h",> 100 µM
same,IC50,"[4]; Homo sapiens, HEK293, 72 h",> 100 µM
same,IC50,"[5]; Homo sapiens, HeLa",> 100 µM
same,melting point,,134 °C
same,IC50,[6],> 100 µM
same,IC50,"[7]; Homo sapiens, MDA-MB-231, 72 h",> 100 µM
"CCN(CC)c1ccc(C2=NN(c3ccccc3)C(c3ccc(OC)cc3)C2)cc1 (stereo not shown) [DML11, N,N-diethyl-4-(5-(4-methoxyphenyl)-1-phenyl-4,5-dihydro-1H-pyrazol-3-yl)aniline]",IC50,"[1]; Homo sapiens, LoVo",> 100 µM
same,IC50,[2],> 100 µM
same,IC50,"[3]; Homo sapiens, A549, 72 h",> 100 µM
same,IC50,"[4]; Homo sapiens, HEK293, 72 h",> 100 µM
same,IC50,"[5]; Homo sapiens, HeLa",> 100 µM
same,melting point,,121 °C
same,IC50,[6],> 100 µM
same,IC50,"[7]; Homo sapiens, MDA-MB-231, 72 h",> 100 µM
"CN(C)c1ccc(C2=NN(c3ccccc3)C(c3ccc(Cl)cc3Cl)C2)cc1 (stereo not shown) [DML12, 4-(5-(2,4-dichlorophenyl)-1-phenyl-4,5-dihydro-1H-pyrazol-3-yl)-N,N-dimethylaniline]",IC50,"[1]; Homo sapiens, LoVo",> 100 µM
same,IC50,[2],> 100 µM
same,IC50,"[3]; Homo sapiens, A549, 72 h",> 100 µM
same,IC50,"[4]; Homo sapiens, HEK293, 72 h",> 100 µM
same,IC50,"[5]; Homo sapiens, HeLa",> 100 µM
same,melting point,,124 °C
same,IC50,[6],> 100 µM
same,IC50,"[7]; Homo sapiens, MDA-MB-231, 72 h",> 100 µM
